Assay results as given in the supplement of paper PMC6045584.
± gives the standard deviation of the averaged measurements.

Legend:
[1] = compound: Cn1cc(C2=Nc3cc(NC(=O)C(N)C4CCCCC4)cc4c3C2=CNNC4=O)cn1; experiment: area under dose-response curve of surviving fraction (unscaled, Aref=0) (surviving fraction x log10(nM)); higher = more resistant; details: exposure time: 5 days; dose range 0.5-1000 nM
Method in brief: (§1)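 Each tumour cell line was screened three times in 384-well plates, receiving eight inhibitor concentrations from 0.5 to 1000 nM for five days. CellTiter-Glo luminescence gave viability, normalised to DMSO-only wells. Using the drc R package, surviving fractions were fitted with 3-parameter logistic dose-response curves, and the unscaled activity area over log10 dose (Aref = 0) was taken as the area under the curve.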

AFATINIB [2] = compound: T1, CN(C)C/C=C/C(=O)Nc1cc2c(Nc3ccc(F)c(Cl)c3)ncnc2cc1O[C@H]1CCOC1 [AFATINIB]; experiment: as above; details: exposure time: 5 days; dose range 0.5-1000 nM
Method in brief: as §1

TIOGUANINE [3] = compound: T2, Nc1nc2[nH]cnc2c(=S)[nH]1 [TIOGUANINE]; experiment: as above; details: exposure time: 5 days; dose range 0.5-1000 nM
Method in brief: as §1

CANERTINIB [4] = compound: T3, C=CC(=O)Nc1cc2c(Nc3ccc(F)c(Cl)c3)ncnc2cc1OCCCN1CCOCC1 [CANERTINIB]; experiment: as above; details: exposure time: 5 days; dose range 0.5-1000 nM
Method in brief: as §1

SNX-5422 [5] = compound: T4, CC1(C)CC(=O)c2c(C(F)(F)F)nn(-c3ccc(C(N)=O)c(N[C@H]4CC[C@H](OC(=O)CN)CC4)c3)c2C1 [SNX-5422]; experiment: as above; details: exposure time: 5 days; dose range 0.5-1000 nM
Method in brief: as §1

SAPACITABINE [6] = compound: T5, CCCCCCCCCCCCCCCC(=O)Nc1ccn([C@@H]2O[C@H](CO)[C@@H](O)[C@@H]2C#N)c(=O)n1 [SAPACITABINE]; experiment: as above; details: exposure time: 5 days; dose range 0.5-1000 nM
Method in brief: as §1

BI-2536 [7] = compound: T6, CC[C@@H]1C(=O)N(C)c2cnc(Nc3ccc(C(=O)NC4CCN(C)CC4)cc3OC)nc2N1C1CCCC1 [BI-2536]; experiment: as above; details: exposure time: 5 days; dose range 0.5-1000 nM
Method in brief: as §1

MDV3100 [8] = compound: T7, CNC(=O)c1ccc(N2C(=S)N(c3ccc(C#N)c(C(F)(F)F)c3)C(=O)C2(C)C)cc1F [MDV3100]; experiment: as above; details: exposure time: 5 days; dose range 0.5-1000 nM
Method in brief: as §1

[9] = compound: Cn1cc(C2=Nc3cc(NC(=O)C(N)C4CCCCC4)cc4c3C2=CNNC4=O)cn1; experiment: surviving fraction relative to DMSO-only wells; higher = less growth inhibition; details: exposure time: 5 days
Method in brief: (§2)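 At 250–500 cells per well in 384-well plates, log-phase tumour cell lines were seeded and, 24 hours on, exposed continuously for five days to inhibitors at 0.5, 1, 5, 10, 50, 100, 500 and 1000 nM. Viability readout was CellTiter-Glo luminescence, reported as surviving fraction normalised to the median of DMSO-only wells.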

AFATINIB [10] = compound: T1, AFATINIB; experiment: as above; details: exposure time: 5 days
Method in brief: as §2

TIOGUANINE [11] = compound: T2, TIOGUANINE; experiment: as above; details: exposure time: 5 days
Method in brief: as §2

CANERTINIB [12] = compound: T3, CANERTINIB; experiment: as above; details: exposure time: 5 days
Method in brief: as §2

SNX-5422 [13] = compound: T4, SNX-5422; experiment: as above; details: exposure time: 5 days
Method in brief: as §2

SAPACITABINE [14] = compound: T5, SAPACITABINE; experiment: as above; details: exposure time: 5 days
Method in brief: as §2

BI-2536 [15] = compound: T6, BI-2536; experiment: as above; details: exposure time: 5 days
Method in brief: as §2

MDV3100 [16] = compound: T7, MDV3100; experiment: as above; details: exposure time: 5 days
Method in brief: as §2

## HCC78 LUNG
[1]
  area under dose-response curve: 2.33
AFATINIB [2]
  area under dose-response curve: 2.33
TIOGUANINE [3]
  area under dose-response curve: 2.59
CANERTINIB [4]
  area under dose-response curve: 2.55
SNX-5422 [5]
  area under dose-response curve: 1.71
SAPACITABINE [6]
  area under dose-response curve: 1.52
BI-2536 [7]
  area under dose-response curve: 0.803
MDV3100 [8]
  area under dose-response curve: 2.9
[9]; 0.5 nM
  surviving fraction: 0.91 ± 0.095
[9]; 1 nM
  surviving fraction: 1.13 ± 0.26
[9]; 5 nM
  surviving fraction: 0.993 ± 0.07
[9]; 10 nM
  surviving fraction: 1.03 ± 0.17
[9]; 50 nM
  surviving fraction: 0.887 ± 0.11
[9]; 100 nM
  surviving fraction: 0.471 ± 0.29
[9]; 500 nM
  surviving fraction: 0.0453 ± 0.011
[9]; 1000 nM
  surviving fraction: 0.0623 ± 0.013
AFATINIB [10]; 0.5 nM
  surviving fraction: 0.943 ± 0.12
AFATINIB [10]; 1 nM
  surviving fraction: 0.936 ± 0.17
AFATINIB [10]; 5 nM
  surviving fraction: 0.867 ± 0.21
AFATINIB [10]; 10 nM
  surviving fraction: 0.787 ± 0.19
AFATINIB [10]; 50 nM
  surviving fraction: 0.64 ± 0.16
AFATINIB [10]; 100 nM
  surviving fraction: 0.682 ± 0.13
AFATINIB [10]; 500 nM
  surviving fraction: 0.383 ± 0.13
AFATINIB [10]; 1000 nM
  surviving fraction: 0.235 ± 0.027
TIOGUANINE [11]; 0.5 nM
  surviving fraction: 0.726 ± 0.091
TIOGUANINE [11]; 1 nM
  surviving fraction: 0.781 ± 0.21
TIOGUANINE [11]; 5 nM
  surviving fraction: 0.854 ± 0.13
TIOGUANINE [11]; 10 nM
  surviving fraction: 0.685 ± 0.23
TIOGUANINE [11]; 50 nM
  surviving fraction: 0.866 ± 0.086
TIOGUANINE [11]; 100 nM
  surviving fraction: 0.853 ± 0.059
TIOGUANINE [11]; 500 nM
  surviving fraction: 0.743 ± 0.2
TIOGUANINE [11]; 1000 nM
  surviving fraction: 0.773 ± 0.088
CANERTINIB [12]; 0.5 nM
  surviving fraction: 0.848 ± 0.35
CANERTINIB [12]; 1 nM
  surviving fraction: 0.812 ± 0.13
CANERTINIB [12]; 5 nM
  surviving fraction: 0.946 ± 0.086
CANERTINIB [12]; 10 nM
  surviving fraction: 0.983 ± 0.23
CANERTINIB [12]; 50 nM
  surviving fraction: 0.638 ± 0.043
CANERTINIB [12]; 100 nM
  surviving fraction: 0.775 ± 0.084
CANERTINIB [12]; 500 nM
  surviving fraction: 0.532 ± 0.081
CANERTINIB [12]; 1000 nM
  surviving fraction: 0.426 ± 0.18
SNX-5422 [13]; 0.5 nM
  surviving fraction: 0.808 ± 0.27
SNX-5422 [13]; 1 nM
  surviving fraction: 1.2 ± 0.38
SNX-5422 [13]; 5 nM
  surviving fraction: 1.03 ± 0.17
SNX-5422 [13]; 10 nM
  surviving fraction: 1 ± 0.079
SNX-5422 [13]; 50 nM
  surviving fraction: 0.0547 ± 0.01
SNX-5422 [13]; 100 nM
  surviving fraction: 0.113 ± 0.049
SNX-5422 [13]; 500 nM
  surviving fraction: 0.0627 ± 0.016
SNX-5422 [13]; 1000 nM
  surviving fraction: 0.088 ± 0.007
SAPACITABINE [14]; 0.5 nM
  surviving fraction: 0.831 ± 0.058
SAPACITABINE [14]; 1 nM
  surviving fraction: 0.916 ± 0.25
SAPACITABINE [14]; 5 nM
  surviving fraction: 0.913 ± 0.038
SAPACITABINE [14]; 10 nM
  surviving fraction: 0.354 ± 0.035
SAPACITABINE [14]; 50 nM
  surviving fraction: 0.445 ± 0.095
SAPACITABINE [14]; 100 nM
  surviving fraction: 0.123 ± 0.052
SAPACITABINE [14]; 500 nM
  surviving fraction: 0.039 ± 0.0087
SAPACITABINE [14]; 1000 nM
  surviving fraction: 0.0357 ± 0.0059
BI-2536 [15]; 0.5 nM
  surviving fraction: 0.932 ± 0.33
BI-2536 [15]; 1 nM
  surviving fraction: 0.781 ± 0.13
BI-2536 [15]; 5 nM
  surviving fraction: 0.16 ± 0.03
BI-2536 [15]; 10 nM
  surviving fraction: 0.091 ± 0.031
BI-2536 [15]; 50 nM
  surviving fraction: 0.0883 ± 0.011
BI-2536 [15]; 100 nM
  surviving fraction: 0.156 ± 0.023
BI-2536 [15]; 500 nM
  surviving fraction: 0.112 ± 0.021
BI-2536 [15]; 1000 nM
  surviving fraction: 0.0973 ± 0.01
MDV3100 [16]; 0.5 nM
  surviving fraction: 0.976 ± 0.13
MDV3100 [16]; 1 nM
  surviving fraction: 0.75 ± 0.27
MDV3100 [16]; 5 nM
  surviving fraction: 1.03 ± 0.11
MDV3100 [16]; 10 nM
  surviving fraction: 0.972 ± 0.14
MDV3100 [16]; 50 nM
  surviving fraction: 0.799 ± 0.14
MDV3100 [16]; 100 nM
  surviving fraction: 0.925 ± 0.092
MDV3100 [16]; 500 nM
  surviving fraction: 0.664 ± 0.045
MDV3100 [16]; 1000 nM
  surviving fraction: 0.451 ± 0.051
